We go through 22 compounds from patent US20090048301A1 (IMCLONE SYSTEMS INCORPORATED, priority 2003, published 2009).

In assay [1] the test system is A431, human epidermoid carcinoma cells. Kind of assay: Cell cycle analysis (FACS), mitotic arrest in G2/M. The assay is classed as cell-based. The following applies: Homo sapiens, A-431, 24 h, read-out: FACS Assay: concentration required to achieve inhibition in FACS assay. As to the method:
The cell cycle analysis was performed as follows. Cancer cells (A431, human epidennoid carcinoma cells) were maintained in culture in D-MEM media with 10% FBS and 1 mg/ml glutamate. Prior to experiment, cells were plated onto 6-well plates for a final density of 500,000 cells/well at the time of treatment. Cells were treated with the compounds of the invention at a concentration of about 0.01 to 1 μM final concentrations (final 0.1% DMSO) for 24 hours, then trypsinized, collected, rinsed in PBS (phosphate buffered saline), and fixed in 70% cold ethanol overnight at 4° C. The cells were then rinsed with PBS, resuspended in PBS with 0.2% Tween, RNAse was added (final 1 μg/ml), cells were incubated at 37° C. for 15 min, followed by addition of Propidium Iodide (final 50 μg/ml), and a 30 minute incubation at room temperature. DNA ploidy was analyzed using flow cytometers (Epics Excel, Beckman-Coulter, or Guava PCA-96, Guava Technologies) and mitotic arrest characterized by massive accumulation of cells in the G2/M phase of cell cycle.
Cancer cells (A431, human epidermoid cells) were maintained in culture in D-MEM media with 10% FBS and 1 mg/ml glutamate. Prior to experiment, cells are plated onto 6-well plates for a final density of 500,000 cells/well at the time of treatment. Cells were treated with compounds at 0.01-1 μM final concentrations (final […] DMS 0) for 24 hours, then trypsinized, collected, rinsed in PBS (phosphate buffered saline), and fixed in 70% cold ethanol overnight at 4° C. Cells were then rinsed with PBS, resuspended in PBS with 0.2% Tween, RNAse was added (final 1 μg/ml), cells were incubated at 37° C. for 15 min, followed by addition of Propidium Iodide (final 50 μg/ml), and a 30 minute incubation at room temperature. DNA ploidy was analyzed using cell sorters (Epics Excel, Beckman-Coulter, or Guava PCA-96, Guava Technologies) and mitotic arrest characterized by massive accumulation of cells in the G2/M phase of cell cycle.
Background: In flow cytometry, cells or beads pass a laser one at a time.

In assay [2] the test system is bovine tubulin. Kind of assay: In vitro tubulin polymerization assay (turbidity at 340 nm). The assay is classed as biochemical. The following applies: 10 μM compound, 30 minute data point, vs 1% DMSO control. The gist of the method: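 Percent inhibition derives from turbidity (340 nm) at 30 min relative to 1% DMSO controls, read every minute at 37° C. Polymerization mix: 3 mg/ml bovine tubulin, <3% MAPs, in PIPES pH 7 G-PEM with 1 mM GTP, 1 mM MgCl2, 5% glycerol; enhancers also detectable.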

Regarding `c1cnc(NCc2ccc3c(c2)CCO3)c(-c2nnc(Nc3ccc4c(c3)OCO4)o2)c1` [Compound 198, {3-[5-(Benzo[1,3]dioxol-5-ylamino)-[1,3,4]oxadiazol-2-yl]-pyridin-2-yl}-(2,3-dihydro-benzofuran-5-ylmethyl)-amine], in assay [1], the minimal effective concentration came to 0.1 µM. Further, the “Tubulin Assay: percent inhibition at 10 μM based on 30 minute data” value (“Tubulin Assay: percent inhibition” for short) in assay [2] is recorded as 87%.
In the case of `c1ccc(-c2nnc(Nc3ccc4c(c3)OCCO4)[nH]2)c(NCc2ccncc2)c1` [Compound 122, (2,3-Dihydro-benzo[1,4]dioxin-6-yl)-(5-{2-[(pyridin-4-ylmethyl)-amino]-phenyl}-4H-[1,2,4]triazol-3-yl)-amine], the minimal effective concentration in assay [1] worked out at 1 µM. Also, the “Tubulin Assay: percent inhibition” value in assay [2] is 84%.
The like results for `c1ccc(-c2nnc(Nc3ccc4c(c3)OCO4)o2)c(NCc2cn[nH]c2)c1` [Compound 224, Benzo[1,3]dioxol-5-yl-(5-{2-[(1H-pyrazol-4-ylmethyl)-amino]-phenyl}-[1,3,4]oxadiazol-2-yl)-amine] were, in that order, 1 µM and 81%.
As for `COc1cccc(CNc2ncccc2-c2nnc(Nc3ccc4c(c3)OCO4)o2)c1` [Compound 156, {3-[5-(Benzo[1,3]dioxol-5-ylamino)-[1,3,4]oxadiazol-2-yl]-pyridin-2-yl}-(3-methoxy-benzyl)-amine], the minimal effective concentration in assay [1] worked out at 1 µM. Besides, the “Tubulin Assay: percent inhibition” value in assay [2] is 64%.
The like results for `FC(F)(F)c1ccc(-c2nnc(Nc3ccc4c(c3)OCO4)[nH]2)c(NCc2ccncc2)c1` [Compound 124, Benzo[1,3]dioxol-5-yl-(5-{2-[(pyridin-4-ylmethyl)-amino]-4-trifluoromethyl-phenyl}-4H-[1,2,4]triazol-3-yl)-amine] were, in that order, 0.1 µM and 93%.
The like results for `COc1ccc(CNc2nnc(-c3cccnc3Nc3cc(OC)cc(OC)c3)[nH]2)cc1` [Compound 59, (3,5-Dimethoxy-phenyl)-{3-[5-(4-methoxy-benzylamino)-4H-[1,2,4]triazol-3-yl]-pyridin-2-yl}-amine] were, in that order, 1 µM and 88%.
On the same counts, the results for `c1ccc(-c2cnc(Nc3ccc4c(c3)OCCO4)o2)c(NCc2ccc3c(c2)OCO3)c1` [Compound 244, (5-{2-[(Benzo[1,3]dioxol-5-ylmethyl)-amino]-phenyl}-oxazol-2-yl)-(2,3-dihydro-benzo[1,4]dioxin-6-yl)-amine] are 1 µM and 96%.
For `c1ccc(CNc2ccccc2-c2nnc(Nc3ccc4c(c3)OCCO4)o2)nc1` [Compound 217, (2,3-Dihydro-benzo[1,4]dioxin-6-yl)-(5-{2-[(pyridin-2-ylmethyl)-amino]-phenyl}-[1,3,4]oxadiazol-2-yl)-amine], the minimal effective concentration in assay [1] was determined as 0.1 µM. In addition, in assay [2], the “Tubulin Assay: percent inhibition” value was 100%.
On the same counts, the results for `CS(=O)(=O)c1ccc(-c2nnc(-c3cccnc3NCC3COCCO3)[nH]2)cc1` (centres unmarked) [Compound 103, [1,4]Dioxan-2-ylmethyl-{3-[5-(4-methanesulfonyl-phenyl)-4H-[1,2,4]triazol-3-yl]-pyridin-2-yl}-amine] are 1 µM and 80%.
For the compound `COc1cc(Nc2ncccc2-c2nnc(Nc3cccc([N+](=O)[O-])c3)[nH]2)cc(OC)c1` [Compound 60a, (3,5-dimethoxy-phenyl)-{3-[5-(3-nitro-phenylamino)-4H-[1,2,4]triazol-3-yl]-pyridin-2-yl}-amine], the minimal effective concentration in assay [1] was 0.1 µM. In addition, the “Tubulin Assay: percent inhibition” value in assay [2] came to 95%.
The like results for `c1cnc(Nc2ccc3c(c2)OCO3)c(-c2nnc(Nc3ccc4c(c3)OCO4)[nH]2)c1` [Compound 32, Benzo[1,3]dioxol-5-yl-{3-[5-(benzo[1,3]dioxol-5-ylamino)-4H-[1,2,4]triazol-3-yl]-pyridin-2-yl}-amine] were, in that order, 10 µM and 54%.
On the same counts, the results for `Fc1ccc(CNc2ncccc2-c2nnc(Nc3ccc4c(c3)OCCO4)[nH]2)cc1F` [Compound 44, (3,4-Difluoro-benzyl)-{3-[5-(2,3-dihydro-benzo[1,4]dioxin-6-ylamino)-4H-[1,2,4]triazol-3-yl]-pyridin-2-yl}-amine] are 1 µM and 84%.
The like results for `COc1cccc(CNc2ncccc2-c2nnc(Nc3ccc4c(c3)OCCO4)o2)c1` [Compound 159, {3-[5-(2,3-Dihydro-benzo[1,4]dioxin-6-ylamino)-[1,3,4]oxadiazol-2-yl]-pyridin-2-yl}-(3-methoxy-benzyl)-amine] were, in that order, 0.075 µM and 87%.
In the case of `COc1cc(Nc2ncccc2-c2nnc(-c3ccc(S(C)(=O)=O)cc3)[nH]2)cc(OC)c1` [Compound 74, (3,5-Dimethoxy-phenyl)-{3-[5-(4-methanesulfonyl-phenyl)-4H-[1,2,4]triazol-3-yl]-pyridin-2-yl}-amine], in assay [1], the minimal effective concentration was 0.1 µM. Also, in assay [2], the “Tubulin Assay: percent inhibition” value is recorded as 87%.
The like results for `c1cncc(CNc2ncccc2-c2nnc(Nc3ccc4c(c3)OCCO4)o2)c1` [Compound 162, {3-[5-(2,3-Dihydro-benzo[1,4]dioxin-6-ylamino)-[1,3,4]oxadiazol-2-yl]-pyridin-2-yl}-pyridin-3-ylmethyl-amine] were, in that order, 0.01 µM and 86%.
As for `FC(F)(F)Oc1cccc(-c2nnc(-c3ccccc3NCc3ccc4c(c3)OCO4)[nH]2)c1` [Compound 141, Benzo[1,3]dioxol-5-ylmethyl-{2-[5-(3-trifluoromethoxy-phenyl)-4H-[1,2,4]triazol-3-yl]-phenyl}-amine], the minimal effective concentration in assay [1] came out at 0.1 µM. For the same compound, in assay [2], the “Tubulin Assay: percent inhibition” value came to 88%.
The like results for `c1ccc(-c2nnc(Nc3ccc4c(c3)OCO4)[nH]2)c(NCc2ccc3[nH]ncc3c2)c1` [Compound 119, Benzo[1,3]dioxol-5-yl-(5-{2-[(1H-indazol-5-ylmethyl)-amino]-phenyl}-4H-[1,2,4]triazol-3-yl)-amine] were, in that order, 1 µM and 76%.
For the compound `c1cnc(NCc2ccncc2)c(-c2nnc(Nc3ccc4c(c3)OCO4)[nH]2)c1` [Compound 38, {3-[5-(Benzo[1,3]dioxol-5-ylamino)-4H-[1,2,4]triazol-3-yl]-pyridin-2-yl}-pyridin-4-ylmethyl-amine], the minimal effective concentration in assay [1] turned out to be 0.1 µM. Also, the “Tubulin Assay: percent inhibition” value in assay [2] is given as 77%.
The like results for `c1cnc(NCc2ccc3c(c2)OCO3)c(-c2nnc(Nc3ccc4c(c3)OCCO4)o2)c1` [Compound 195, Benzo[1,3]dioxol-5-ylmethyl-{3-[5-(2,3-dihydro-benzo[1,4]dioxin-6-ylamino)-[1,3,4]oxadiazol-2-yl]-pyridin-2-yl}-amine] were, in that order, 0.01 µM and 73%.
The like results for `Fc1cccc(CNc2ncccc2-c2nnc(Nc3ccc4c(c3)OCCO4)o2)c1` [Compound 168, {3-[5-(2,3-Dihydro-benzo[1,4]dioxin-6-ylamino)-[1,3,4]oxadiazol-2-yl]-pyridin-2-yl}-(3-fluoro-benzyl)-amine] were, in that order, 0.1 µM and 95%.
On the same counts, the results for `Fc1ccc(CNc2ncccc2-c2nnc(Nc3ccc4c(c3)OCCO4)o2)cc1` [Compound 169, {3-[5-(2,3-Dihydro-benzo[1,4]dioxin-6-ylamino)-[1,3,4]oxadiazol-2-yl]-pyridin-2-yl}-(4-fluoro-benzyl)-amine] are 0.1 µM and 82%.
Turning to `c1cnc(OCc2ccc3c(c2)OCO3)c(-c2nnc(Nc3ccc4c(c3)OCO4)[nH]2)c1` [Compound 72, Benzo[1,3]dioxol-5-yl-{5-[2-(benzo[1,3]dioxol-5-ylmethoxy)-pyridin-3-yl]-4H-[1,2,4]triazol-3-yl}-amine], the minimal effective concentration in assay [1] was 0.1 µM. Besides, the “Tubulin Assay: percent inhibition” value in assay [2] is on record as 100%.
